US20240173419A1, “CDK2 DEGRADERS AND USES THEREOF” (Kymera Therapeutics, Inc., priority 2022, published 2024)

Target: T1, CDK2 (Homo sapiens, UniProt P24941)
T1 construct: endogenous in cells; host or cells: MKN1 cells
Test: CDK2 degradation in MKN1 cells (AlphaLISA)
Assay type: cell-based
Parameters: key to CDK2 degradation 14 h: Mean external-Abs DC50 (nM): A (<100 nM); B (≥100-500 nM); C (>500-1000 nM); D (>1000 nM); E (not achieved)
Details: 14 h incubation; for DC50: read-out: CDK2 degradation 14 h: Mean external-Abs DC50
Procedure, shortened: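 MKN1 cells (2e4/well) treated 14 h at 37° C with 11-point 1:5 dilutions (0.001 nM-10 μM, 0.1% DMSO). CDK2 in lysates quantified by AlphaLISA, no-cell background subtracted; DC50 from four-parameter logistic fit.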

Row | SMILES | CDK2 degradation 14 h: Average Dmax % | DC50 [nM] | CDK2 degradation 14 h: Mean external-Abs DC50 (nM)
1 | Cc1cc(S(=O)(=O)N2CCN(CCC3CCN(c4cccc5c4n(C)c(=O)n5C4CCC(=O)NC4=O)CC3)CC2)ccc1Nc1ncc2cc(Cl)c(=O)n(C(C)C)c2n1 (stereo not drawn) [I-393] | B (B (>50% -75%)) | 100 to 500 | 
2 | Cc1cc(S(=O)(=O)NCCOCC2CCN(c3ccc(N4CCC(=O)NC4=O)cc3)CC2)ccc1Nc1ncc2cc(Cl)c(=O)n(C3CCCC3)c2n1 [I-409] | C (C (>25% -50%)) | > 1000 | 
3 | Cc1cc(S(=O)(=O)NCCCCCC2CCN(c3ccc(N4CCC(=O)NC4=O)cc3)CC2)ccc1Nc1ncc2cc(Cl)c(=O)n(C3CCCC3)c2n1 [I-410] | C (C (>25% -50%)) | > 1000 | 
4 | Cc1cc(S(=O)(=O)NCCCCC2CCN(c3ccc(N4CCC(=O)NC4=O)cc3)CC2)ccc1Nc1ncc2cc(Cl)c(=O)n(C3CCCC3)c2n1 [I-411] | C (C (>25% -50%)) | > 1000 | 
5 | Cc1cc(S(=O)(=O)NCCCC2CCN(c3ccc(N4CCC(=O)NC4=O)cc3)CC2)ccc1Nc1ncc2cc(Cl)c(=O)n(C3CCCC3)c2n1 [I-412] | C (C (>25% -50%)) | > 1000 | 
6 | Cc1cc(S(=O)(=O)NCCC2CCN(c3ccc(N4CCC(=O)NC4=O)cc3)CC2)ccc1Nc1ncc2cc(Cl)c(=O)n(C3CCCC3)c2n1 [I-413] | B (B (>50% -75%)) | > 1000 | 
7 | Cc1cc(S(=O)(=O)N2CCC(CN(C)C3CCN(c4cccn5c(N6CCC(=O)NC6=O)cnc45)CC3)CC2)ccc1Nc1ncc2cc(Cl)c(=O)n(C3CCCC3)c2n1 [I-414] | B (B (>50% -75%)) | 100 to 500 | 
8 | Cc1cc(S(=O)(=O)N2CC3(CC(OCCN4CCC(c5ccc6c(c5)n(C)c(=O)n6C5CCC(=O)NC5=O)CC4)C3)C2)ccc1Nc1ncc2cc(Cl)c(=O)n(C3CCCC3)c2n1 (stereo not drawn) [I-418] | C (C (>25% -50%)) | > 1000 | 
9 | Cc1cc(S(=O)(=O)N2CC(CN(C)C3CCN(c4cccc5c4n(C)c(=O)n5C4CCC(=O)NC4=O)CC3)C2)ccc1Nc1ncc2cc(Cl)c(=O)n(C3CCCC3)c2n1 (stereo not drawn) [I-421] | B (B (>50% -75%)) | 100 to 500 | 
10 | Cc1cc(S(=O)(=O)N2CCC(CN(C)C3CN(c4cccc5c4n(C)c(=O)n5C4CCC(=O)NC4=O)C3)CC2)ccc1Nc1ncc2cc(Cl)c(=O)n(C3CCCC3)c2n1 (stereo not drawn) [I-422] | C (C (>25% -50%)) |  | E
11 | Cc1cc(S(=O)(=O)N2CCC(CN(C)C3CCN(c4cccc5c4n(C)c(=O)n5C4CCC(=O)NC4=O)CC3)CC2)ccc1Nc1ncc2cc(Cl)c(=O)n(C3CCCC34CC4)c2n1 (stereo not drawn) [I-436] | A (A (>75% o)) | < 100 | 
12 | Cc1cc(S(=O)(=O)N2CCC(CN(C)C3CCN(c4cccc5c4n(C)c(=O)n5C4CCC(=O)NC4=O)CC3)CC2)ccc1Nc1ncc2cc(Cl)c(=O)n(C(C)C)c2n1 (stereo not drawn) [I-437] | A (A (>75% o)) | < 100 | 
13 | Cc1cc(S(=O)(=O)N2CCC(CN(C)C3CCN(c4cccc5c4n(C)c(=O)n5C4CCC(=O)NC4=O)CC3)CC2)ccc1Nc1ncc2cc(C(F)F)c(=O)n(C3CCCC3)c2n1 (stereo not drawn) [I-438] | A (A (>75% o)) | < 100 | 
14 | Cc1cc(S(=O)(=O)NCCO[C@H]2CC[C@H](CN3CCC(c4ccc5c(c4)n(C)c(=O)n5C4CCC(=O)NC4=O)CC3)CC2)ccc1Nc1ncc2cc(Cl)c(=O)n(C3CCCC34CC4)c2n1 (stereo partly drawn) [I-439] | A (A (>75% o)) | < 100 | 
15 | Cc1cc(S(=O)(=O)NCCO[C@H]2CC[C@H](CN3CCC(c4ccc5c(c4)n(C)c(=O)n5C4CCC(=O)NC4=O)CC3)CC2)ccc1Nc1ncc2cc(Cl)c(=O)n(C(C)C)c2n1 (stereo partly drawn) [I-440] | A (A (>75% o)) | < 100 | 
16 | Cc1cc(S(=O)(=O)NCCO[C@H]2CC[C@H](CN3CCC(c4ccc5c(c4)n(C)c(=O)n5C4CCC(=O)NC4=O)CC3)CC2)ccc1Nc1ncc2cc(C(F)F)c(=O)n(C3CCCC3)c2n1 (stereo partly drawn) [I-441] | A (A (>75% o)) | < 100 | 
17 | Cc1cc(S(=O)(=O)N2CCC(CN(C)C3CCN(c4cccc5c4n(C)c(=O)n5C4CCC(=O)NC4=O)CC3)CC2)ccc1Nc1ncc2cc(Cl)c(=O)n(C3CCCC3)c2n1 (stereo not drawn) [I-442] | A (A (>75% o)) | < 100 | 
18 | Cc1cc(S(=O)(=O)NCCOC2CC3(C2)CN(Cc2ccc4c(c2)n(C)c(=O)n4C2CCC(=O)NC2=O)C3)ccc1Nc1ncc2ccc(=O)n(C3CCCC3)c2n1 (stereo not drawn) [I-445] | A (A (>75% o)) | < 100 | 
19 | Cc1cc(S(=O)(=O)N2CCC(OCC#Cc3cccc4c3n(C)c(=O)n4C3CCC(=O)NC3=O)CC2)ccc1Nc1ncc2ccc(=O)n(C3CCCC3)c2n1 (stereo not drawn) [I-447] | D (D (<25%)) | > 1000 | 
20 | Cc1cc(S(=O)(=O)N2CCC(CN(C)C3CCN(Cc4cccc5c4n(C)c(=O)n5C4CCC(=O)NC4=O)CC3)CC2)ccc1Nc1ncc2ccc(=O)n(C3CCCC3)c2n1 (stereo not drawn) [I-449] | A (A (>75% o)) | < 100 | 
21 | Cc1cc(S(=O)(=O)N2CCC(CN(C)C3CCN(c4cccc5c4n(C)c(=O)n5C4CCC(=O)NC4=O)CC3)CC2)ccc1Nc1ncc2ccc(=O)n(C3CCCC3)c2n1 (stereo not drawn) [I-450] | A (A (>75% o)) | < 100 | 
22 | Cc1cc(S(=O)(=O)N2CCC(CN3CCN(c4cccc5c4n(C)c(=O)n5C4CCC(=O)NC4=O)CC3)CC2)ccc1Nc1ncc2ccc(=O)n(C3CCCC3)c2n1 (stereo not drawn) [I-451] | C (C (>25% -50%)) |  | E

Results, then the compound that gave them:

Row | CDK2 degradation 14 h: Average Dmax % | DC50 [nM] | CDK2 degradation 14 h: Mean external-Abs DC50 (nM) | SMILES
23 | A (A (>75% o)) | < 100 |  | Cc1cc(S(=O)(=O)N2CCC(N3CCC(CN(C)c4cccc5c4n(C)c(=O)n5C4CCC(=O)NC4=O)CC3)CC2)ccc1Nc1ncc2cc(C(F)F)c(=O)n(C3CCCC34CC4)c2n1 (stereo not drawn) [I-383]
24 | A (A (>75% o)) | < 100 |  | Cc1cc(S(=O)(=O)NCCN2CCN(CC3CCN(c4ccc5c(c4)n(C)c(=O)n5C4CCC(=O)NC4=O)CC3)CC2)ccc1Nc1ncc2cc(Cl)c(=O)n(C(C)C)c2n1 (stereo not drawn) [I-397]
25 | A (A (>75% o)) | < 100 |  | Cc1cc(S(=O)(=O)NCCCN2CCN(C3CCN(c4ccc5c(c4)n(C)c(=O)n5C4CCC(=O)NC4=O)CC3)CC2)ccc1Nc1ncc2cc(Cl)c(=O)n(C(C)C)c2n1 (stereo not drawn) [I-398]
26 | A (A (>75% o)) | < 100 |  | Cc1cc(S(=O)(=O)NCCCN2CCN(CC3CCN(c4ccc5c(c4)n(C)c(=O)n5C4CCC(=O)NC4=O)CC3)CC2)ccc1Nc1ncc2cc(Cl)c(=O)n(C(C)C)c2n1 (stereo not drawn) [I-400]
27 | B (B (>50% -75%)) | < 100 |  | Cc1cc(S(=O)(=O)NCCOCCOCCNC(=O)COc2ccc(C3CCC(=O)NC3=O)cc2)ccc1Nc1ncc2cc(Cl)c(=O)n(C3CCCC3)c2n1 (stereo not drawn) [I-401]
28 | A (A (>75% o)) | < 100 |  | Cc1cc(S(=O)(=O)N2CCC(CN(C)C3CCN(c4cccc5c(N6CCC(=O)NC6=O)cncc45)CC3)CC2)ccc1Nc1ncc2cc(Cl)c(=O)n(C3CCCC3)c2n1 [I-416]
29 | A (A (>75% o)) | < 100 |  | Cc1cc(S(=O)(=O)N[C@H]2CC[C@H](OCCN3CCC(c4ccc5c(c4)n(C)c(=O)n5C4CCC(=O)NC4=O)CC3)CC2)ccc1Nc1ncc2cc(Cl)c(=O)n(C3CCCC3)c2n1 (stereo partly drawn) [I-419]
30 | A (A (>75% o)) | < 100 |  | Cc1cc(S(=O)(=O)NCCCN(C)C2CCN(c3cccc4c3n(C)c(=O)n4C3CCC(=O)NC3=O)CC2)ccc1Nc1ncc2cc(Cl)c(=O)n(C3CCCC3)c2n1 (stereo not drawn) [I-420]
31 | A (A (>75% o)) | < 100 |  | Cc1cc(S(=O)(=O)N2CCC(CCN3CCN(c4cccc5c4n(C)c(=O)n5C4CCC(=O)NC4=O)CC3)CC2)ccc1Nc1ncc2cc(Cl)c(=O)n(C3CCCC3)c2n1 (stereo not drawn) [I-423]
32 | A (A (>75% o)) | < 100 |  | Cc1cc(S(=O)(=O)NCCO[C@H]2CC[C@H](CN3CCC(c4ccc5c(c4)n(C)c(=O)n5C4CCC(=O)NC4=O)CC3)CC2)ccc1Nc1ncc2cc(C(F)F)c(=O)n(C(C)C)c2n1 (stereo partly drawn) [I-428]
33 | A (A (>75% o)) | < 100 |  | Cc1cc(S(=O)(=O)NCCO[C@H]2C[C@H](CN3CCC(c4ccc5c(c4)n(C)c(=O)n5C4CCC(=O)NC4=O)CC3)C2)ccc1Nc1ncc2cc(Cl)c(=O)n(C3CCCC3)c2n1 (stereo partly drawn) [I-429]
34 | A (A (>75% o)) | < 100 |  | Cc1cc(S(=O)(=O)NCCO[C@H]2CC[C@H](CN3CC(c4ccc5c(c4)n(C)c(=O)n5C4CCC(=O)NC4=O)C3)CC2)ccc1Nc1ncc2cc(Cl)c(=O)n(C3CCCC3)c2n1 (stereo partly drawn) [I-430]
35 | A (A (>75% o)) | < 100 |  | Cc1cc(S(=O)(=O)NCCCN2CCN(CC3CCN(c4ccc5c(c4)n(C)c(=O)n5C4CCC(=O)NC4=O)CC3)CC2)ccc1Nc1ncc2cc(Cl)c(=O)n(C3CCCC3)c2n1 (stereo not drawn) [I-431]
36 | A (A (>75% o)) | < 100 |  | Cc1cc(S(=O)(=O)NCCO[C@H]2CC[C@H](CN3CCN(c4ccc5c(c4)n(C)c(=O)n5C4CCC(=O)NC4=O)CC3)CC2)ccc1Nc1ncc2cc(Cl)c(=O)n(C3CCCC3)c2n1 (stereo partly drawn) [I-432]
37 | A (A (>75% o)) | < 100 |  | Cc1cc(S(=O)(=O)NCCCN2CCC(OC3CCN(c4ccc5c(c4)n(C)c(=O)n5C4CCC(=O)NC4=O)CC3)CC2)ccc1Nc1ncc2cc(Cl)c(=O)n(C3CCCC3)c2n1 (stereo not drawn) [I-433]
38 | A (A (>75% o)) | < 100 |  | Cc1cc(S(=O)(=O)NCCOC2CCN(CC3CCN(c4ccc5c(c4)n(C)c(=O)n5C4CCC(=O)NC4=O)CC3)CC2)ccc1Nc1ncc2cc(Cl)c(=O)n(C3CCCC3)c2n1 (stereo not drawn) [I-434]
39 | A (A (>75% o)) | < 100 |  | Cc1cc(S(=O)(=O)N(C)CCO[C@H]2CC[C@H](CN3CCC(c4ccc5c(c4)n(C)c(=O)n5C4CCC(=O)NC4=O)CC3)CC2)ccc1Nc1ncc2cc(Cl)c(=O)n(C3CCCC3)c2n1 (stereo partly drawn) [I-435]
